Data from the kinase profiling compilation of Christmann-Franck et al. (2016).

Assays:
Assay in all cases: KINOMEscan competition binding
Conditions in all cases: compound 10.0 µM
[1] = system: FLT3 (human), P36888 [D835Y]
[2] = biological target: PKN3 (M.tuberculosis) (UniProt Q6P5Z2)
[3] = biological target: MYO3A (human) (UniProt Q8NEV4)
[4] = biological target: STK17A (human) (UniProt Q9UEE5)
[5] = biological target: LATS1 (human) (UniProt O95835)
[6] = biological target: BMPR1B (human) (UniProt O00238)
[7] = biological target: PAK1 (human) (UniProt Q13153)
[8] = biological target: ULK2 (human) (UniProt Q8IYT8)
[9] = biological target: MAP3K6 (human) (UniProt O95382)
[10] = biological target: TXK (human) (UniProt P42681)
[11] = biological target: CSF1R (human) (UniProt P07333)
[12] = biological target: CLK2 (human) (UniProt P49760)
[13] = biological target: EPHA8 (human) (UniProt P29322)
[14] = biological target: PRKCE (human) (UniProt Q02156)
[15] = biological target: INSRR (human) (UniProt P14616)
[16] = biological target: SRC (human) (UniProt P12931)
[17] = system: EGFR (human), P00533 [T790M]
[18] = biological target: OXSR1 (human) (UniProt O95747)
[19] = biological target: CAMK2A (human) (UniProt Q9UQM7)
[20] = biological target: SGK3 (human) (UniProt Q96BR1)
[21] = biological target: RPS6KA1 KD1 (human) (UniProt Q15418)
[22] = biological target: ACVR2A (human) (UniProt P27037)
[23] = biological target: EPHA4 (human) (UniProt P54764)
[24] = biological target: PRKACB (human) (UniProt P22694)
[25] = biological target: MAP2K2 (human) (UniProt P36507)
[26] = biological target: ERN1 (human) (UniProt O75460)
[27] = biological target: FYN (human) (UniProt P06241)
[28] = biological target: CSNK1D (human) (UniProt P48730)
[29] = biological target: SRPK3 (human) (UniProt Q9UPE1)
[30] = biological target: STK17B (human) (UniProt O94768)
[31] = biological target: MAP3K2 (human) (UniProt Q9Y2U5)
[32] = biological target: NLK (human) (UniProt Q9UBE8)
[33] = biological target: RIOK1 (human) (UniProt Q9BRS2)
[34] = biological target: SRMS (human) (UniProt Q9H3Y6)
[35] = biological target: CDK4 CCND3 (human) (UniProt P11802+P30281)
[36] = biological target: IKBKB (human) (UniProt O14920)
[37] = biological target: PIP4K2C (human) (UniProt Q8TBX8)
[38] = biological target: PRKAA2 (human) (UniProt P54646)
[39] = biological target: KIT (human) (UniProt P10721)
[40] = biological target: AURKA (human) (UniProt O14965)
[41] = biological target: MUSK (human) (UniProt O15146)
[42] = biological target: CDK3 (human) (UniProt Q00526)

Sequence of PRKAA2 (human) (P54646 whole entry, looked up): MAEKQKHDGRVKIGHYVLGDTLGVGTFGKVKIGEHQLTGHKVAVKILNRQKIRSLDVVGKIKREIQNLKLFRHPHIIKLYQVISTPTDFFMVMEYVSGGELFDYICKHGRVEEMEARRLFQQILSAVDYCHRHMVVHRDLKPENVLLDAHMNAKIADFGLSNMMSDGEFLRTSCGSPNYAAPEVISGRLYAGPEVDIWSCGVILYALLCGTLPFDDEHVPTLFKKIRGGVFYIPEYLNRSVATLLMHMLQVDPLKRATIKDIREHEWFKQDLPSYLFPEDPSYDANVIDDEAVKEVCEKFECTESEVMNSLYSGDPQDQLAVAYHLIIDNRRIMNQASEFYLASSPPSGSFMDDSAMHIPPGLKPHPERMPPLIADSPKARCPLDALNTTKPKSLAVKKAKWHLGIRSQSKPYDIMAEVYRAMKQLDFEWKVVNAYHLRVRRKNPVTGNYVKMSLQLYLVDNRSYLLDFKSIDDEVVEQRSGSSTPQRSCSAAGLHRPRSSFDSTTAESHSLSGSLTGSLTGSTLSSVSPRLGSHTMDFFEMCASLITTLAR
Sequence of EPHA8 (human) (P29322 whole entry, looked up): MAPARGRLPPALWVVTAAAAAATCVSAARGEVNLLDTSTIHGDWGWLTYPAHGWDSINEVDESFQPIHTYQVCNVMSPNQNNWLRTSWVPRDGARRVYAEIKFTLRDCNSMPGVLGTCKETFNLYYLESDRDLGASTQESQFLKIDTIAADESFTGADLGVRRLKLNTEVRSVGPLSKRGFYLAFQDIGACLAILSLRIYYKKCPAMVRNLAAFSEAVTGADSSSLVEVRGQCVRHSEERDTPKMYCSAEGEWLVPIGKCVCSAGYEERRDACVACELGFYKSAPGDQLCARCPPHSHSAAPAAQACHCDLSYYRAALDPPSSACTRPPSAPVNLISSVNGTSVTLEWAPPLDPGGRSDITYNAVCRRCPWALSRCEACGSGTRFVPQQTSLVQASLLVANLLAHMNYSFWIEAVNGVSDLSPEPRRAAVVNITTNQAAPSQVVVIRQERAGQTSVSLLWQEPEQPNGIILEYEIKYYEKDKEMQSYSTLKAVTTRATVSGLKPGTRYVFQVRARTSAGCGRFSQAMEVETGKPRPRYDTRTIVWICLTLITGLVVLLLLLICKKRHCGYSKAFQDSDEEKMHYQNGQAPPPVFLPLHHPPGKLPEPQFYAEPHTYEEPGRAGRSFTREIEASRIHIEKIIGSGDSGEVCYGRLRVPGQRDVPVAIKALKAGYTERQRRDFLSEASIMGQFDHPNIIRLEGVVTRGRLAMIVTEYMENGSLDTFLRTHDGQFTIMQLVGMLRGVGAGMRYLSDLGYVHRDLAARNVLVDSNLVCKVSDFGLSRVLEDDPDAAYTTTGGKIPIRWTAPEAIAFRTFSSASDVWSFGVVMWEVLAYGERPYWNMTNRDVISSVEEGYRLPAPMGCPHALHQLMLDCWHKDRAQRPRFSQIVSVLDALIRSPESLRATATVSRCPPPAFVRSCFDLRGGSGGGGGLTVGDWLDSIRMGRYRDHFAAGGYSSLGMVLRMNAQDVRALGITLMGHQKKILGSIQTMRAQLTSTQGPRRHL
Sequence of IKBKB (human) (O14920 whole entry, looked up): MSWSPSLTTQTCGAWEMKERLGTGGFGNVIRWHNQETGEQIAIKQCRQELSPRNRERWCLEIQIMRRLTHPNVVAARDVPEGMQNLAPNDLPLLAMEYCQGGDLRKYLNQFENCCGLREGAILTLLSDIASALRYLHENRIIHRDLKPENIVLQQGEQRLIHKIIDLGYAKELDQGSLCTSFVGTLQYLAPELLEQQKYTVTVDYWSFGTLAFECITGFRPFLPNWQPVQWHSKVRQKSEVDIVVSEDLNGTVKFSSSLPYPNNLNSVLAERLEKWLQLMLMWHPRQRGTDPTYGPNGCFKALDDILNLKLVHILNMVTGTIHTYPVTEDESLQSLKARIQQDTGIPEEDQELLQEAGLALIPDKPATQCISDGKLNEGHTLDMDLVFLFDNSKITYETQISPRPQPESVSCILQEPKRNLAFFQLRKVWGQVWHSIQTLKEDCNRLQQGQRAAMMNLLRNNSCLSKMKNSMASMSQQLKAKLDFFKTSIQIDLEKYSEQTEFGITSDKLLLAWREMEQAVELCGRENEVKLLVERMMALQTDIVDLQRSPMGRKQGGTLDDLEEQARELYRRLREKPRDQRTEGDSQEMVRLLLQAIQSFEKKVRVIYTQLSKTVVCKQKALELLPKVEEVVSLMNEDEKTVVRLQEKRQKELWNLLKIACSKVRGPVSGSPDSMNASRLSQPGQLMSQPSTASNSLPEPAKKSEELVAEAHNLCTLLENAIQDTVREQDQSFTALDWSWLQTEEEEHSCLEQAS
Sequence of CSF1R (human) (P07333 whole entry, looked up): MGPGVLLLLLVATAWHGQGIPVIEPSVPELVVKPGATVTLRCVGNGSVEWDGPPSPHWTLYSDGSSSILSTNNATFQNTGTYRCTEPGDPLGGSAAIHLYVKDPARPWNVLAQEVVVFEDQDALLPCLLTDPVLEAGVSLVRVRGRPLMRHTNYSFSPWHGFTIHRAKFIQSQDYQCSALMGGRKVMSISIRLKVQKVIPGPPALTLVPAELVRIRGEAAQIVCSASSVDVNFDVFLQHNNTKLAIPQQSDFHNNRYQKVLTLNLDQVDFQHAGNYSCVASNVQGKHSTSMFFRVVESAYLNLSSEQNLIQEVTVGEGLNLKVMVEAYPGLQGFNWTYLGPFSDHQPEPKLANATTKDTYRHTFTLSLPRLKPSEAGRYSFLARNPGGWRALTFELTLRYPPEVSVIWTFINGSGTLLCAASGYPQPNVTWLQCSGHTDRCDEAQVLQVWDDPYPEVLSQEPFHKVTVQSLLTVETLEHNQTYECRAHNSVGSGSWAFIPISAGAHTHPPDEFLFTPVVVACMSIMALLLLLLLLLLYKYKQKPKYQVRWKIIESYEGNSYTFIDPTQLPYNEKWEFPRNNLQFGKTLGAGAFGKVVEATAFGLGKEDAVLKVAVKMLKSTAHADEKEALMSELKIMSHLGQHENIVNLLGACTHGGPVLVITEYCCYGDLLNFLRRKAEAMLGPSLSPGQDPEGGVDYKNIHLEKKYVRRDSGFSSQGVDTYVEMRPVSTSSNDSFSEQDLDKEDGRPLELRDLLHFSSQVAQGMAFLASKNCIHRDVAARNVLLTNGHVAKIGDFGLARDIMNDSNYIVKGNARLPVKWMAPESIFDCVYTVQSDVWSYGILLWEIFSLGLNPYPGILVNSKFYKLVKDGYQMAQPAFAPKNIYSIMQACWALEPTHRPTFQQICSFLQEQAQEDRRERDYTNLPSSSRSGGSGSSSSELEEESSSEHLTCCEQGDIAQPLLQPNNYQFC
Sequence of PKN3 (M.tuberculosis) (Q6P5Z2 whole entry, looked up): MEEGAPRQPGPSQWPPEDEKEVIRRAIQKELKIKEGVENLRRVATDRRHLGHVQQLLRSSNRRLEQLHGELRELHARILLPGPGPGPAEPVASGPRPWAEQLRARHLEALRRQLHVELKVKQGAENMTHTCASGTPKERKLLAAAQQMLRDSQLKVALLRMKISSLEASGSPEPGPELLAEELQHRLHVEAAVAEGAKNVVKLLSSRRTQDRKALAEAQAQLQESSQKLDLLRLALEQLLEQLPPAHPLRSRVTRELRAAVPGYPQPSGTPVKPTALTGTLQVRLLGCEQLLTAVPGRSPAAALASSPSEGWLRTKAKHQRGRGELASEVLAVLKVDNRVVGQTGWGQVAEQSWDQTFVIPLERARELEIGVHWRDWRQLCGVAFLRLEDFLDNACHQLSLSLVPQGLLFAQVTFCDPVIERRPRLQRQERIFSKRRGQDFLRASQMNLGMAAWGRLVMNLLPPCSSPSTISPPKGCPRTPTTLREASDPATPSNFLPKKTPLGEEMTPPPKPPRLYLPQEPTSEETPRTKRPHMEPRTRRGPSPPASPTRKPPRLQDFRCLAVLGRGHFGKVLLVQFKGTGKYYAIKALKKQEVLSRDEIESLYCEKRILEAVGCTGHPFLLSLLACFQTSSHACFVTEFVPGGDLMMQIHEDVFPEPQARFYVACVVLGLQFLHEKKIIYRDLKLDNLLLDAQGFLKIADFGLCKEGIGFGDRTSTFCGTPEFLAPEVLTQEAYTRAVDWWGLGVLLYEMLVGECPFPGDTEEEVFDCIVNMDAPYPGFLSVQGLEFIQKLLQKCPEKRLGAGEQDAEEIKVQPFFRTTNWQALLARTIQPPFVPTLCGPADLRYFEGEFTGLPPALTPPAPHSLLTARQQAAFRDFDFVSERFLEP
Sequence of STK17B (human) (O94768 whole entry, looked up): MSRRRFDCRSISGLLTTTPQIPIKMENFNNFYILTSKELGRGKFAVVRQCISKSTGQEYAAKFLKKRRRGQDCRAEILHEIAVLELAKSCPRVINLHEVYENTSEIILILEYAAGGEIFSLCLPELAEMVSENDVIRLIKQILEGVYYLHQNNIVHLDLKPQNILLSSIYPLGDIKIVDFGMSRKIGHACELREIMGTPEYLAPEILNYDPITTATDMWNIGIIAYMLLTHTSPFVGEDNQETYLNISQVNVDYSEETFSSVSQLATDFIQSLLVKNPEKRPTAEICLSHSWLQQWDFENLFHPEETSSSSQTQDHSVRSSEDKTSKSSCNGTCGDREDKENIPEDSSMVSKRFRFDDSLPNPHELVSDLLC
Sequence of MAP2K2 (human) (P36507 whole entry, looked up): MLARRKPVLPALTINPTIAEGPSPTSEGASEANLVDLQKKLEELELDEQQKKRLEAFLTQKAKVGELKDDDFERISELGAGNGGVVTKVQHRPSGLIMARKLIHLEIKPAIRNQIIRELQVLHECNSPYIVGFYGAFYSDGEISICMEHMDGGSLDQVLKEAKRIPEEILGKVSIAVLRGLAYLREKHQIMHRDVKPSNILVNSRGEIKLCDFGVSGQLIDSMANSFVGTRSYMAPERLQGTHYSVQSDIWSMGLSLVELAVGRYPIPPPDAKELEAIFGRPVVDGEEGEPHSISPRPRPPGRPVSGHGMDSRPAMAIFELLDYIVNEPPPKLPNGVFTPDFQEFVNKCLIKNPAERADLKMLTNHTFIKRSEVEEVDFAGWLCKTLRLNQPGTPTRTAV

Cc1cc([C@@H](C)Nc2ccccc2C(=O)O)c2nc(N3CCOCC3)cc(=O)n2c1
kinase still bound, per cent of control [1]: 24% | kinase still bound, per cent of control [2]: 100% | kinase still bound, per cent of control [3]: 100% | kinase still bound, per cent of control [4]: 87% | kinase still bound, per cent of control [5]: 60% | kinase still bound, per cent of control [6]: 89% | kinase still bound, per cent of control [7]: 97% | kinase still bound, per cent of control [8]: 100% | kinase still bound, per cent of control [9]: 94% | kinase still bound, per cent of control [10]: 100% | kinase still bound, per cent of control [11]: 55% | kinase still bound, per cent of control [12]: 100% | kinase still bound, per cent of control [13]: 82% | kinase still bound, per cent of control [14]: 100% | kinase still bound, per cent of control [15]: 100% | kinase still bound, per cent of control [16]: 100% | kinase still bound, per cent of control [17]: 100% | kinase still bound, per cent of control [18]: 80% | kinase still bound, per cent of control [19]: 66% | kinase still bound, per cent of control [20]: 100% | kinase still bound, per cent of control [21]: 67% | kinase still bound, per cent of control [22]: 95% | kinase still bound, per cent of control [23]: 91% | kinase still bound, per cent of control [24]: 62% | kinase still bound, per cent of control [25]: 98% | kinase still bound, per cent of control [26]: 100% | kinase still bound, per cent of control [27]: 41% | kinase still bound, per cent of control [28]: 57% | kinase still bound, per cent of control [29]: 83% | kinase still bound, per cent of control [30]: 100% | kinase still bound, per cent of control [31]: 88% | kinase still bound, per cent of control [32]: 100% | kinase still bound, per cent of control [33]: 75% | kinase still bound, per cent of control [34]: 100% | kinase still bound, per cent of control [35]: 62% | kinase still bound, per cent of control [36]: 95% | kinase still bound, per cent of control [37]: 94% | kinase still bound, per cent of control [38]: 91% | kinase still bound, per cent of control [39]: 69% | kinase still bound, per cent of control [40]: 75% | kinase still bound, per cent of control [41]: 100% | kinase still bound, per cent of control [42]: 92%
